Data published in patent publication US11884906B1, “4D-perfused tumoroid-on-a-chip platform for personalized cancer treatment applications” (University of South Florida, priority 2019, dated 2024).

How the values were obtained:
[1] = test system: HCT116 tumoroid cells; assay: Drug response of HCT116 tumoroids on FiSS, CELLTITER-GLO viability, platform 10 (Chip) vs static system (Control); assay type: cell-based; settings: 48 hours drug treatment, microfluidic platform 10 (Chip) compared with static system (Control), FIGS. 15A-15C
Procedure: (§1) FIG. 6 depicts the results of experiments performed on platform 10 described in detail above. In a first step, microfluidic channel layer 14 is cleaned and a scaffold to be grown on platform 10 is washed. Either 3000 cells of HT29, 2000 cells of HCT116, of 3500 cells of LLC are seeded in 100 μL of a culture media 30. After 48 hours, an additional 100 μl of the culture media 30 is added to inlet well 20, and an additional 50 μL of the culture media is added to culture well 21, with no fresh media added to outlet well 22. Approximately 48 hours after the additional media is added, a drug response test is performed. All the culture media 30 is removed from culture well 21, and 300 μL of a drug dissolved media is added to culture well 21 at the control plate. […]
(§2) A test, such as a CELLTITER-GLO® test, is performed 48 hours later to quantify the viable cells in the culture. […] Cell viability was determined using a CELLTITER-GLO® assay (Promega) according to the manufacturer's protocol. Luminescence was measured in a white well-plate in a Bio-Tek Synergy H4 plate reader (BioTek). An average luminescence value for each group was plotted as a percentage of the control group. […]

[2] = test system: HT29 tumoroid cells; assay: Drug response of HT29 tumoroids on FiSS, CELLTITER-GLO viability, platform 10 (Chip) vs static system (Control); assay type: cell-based; settings: 48 hours drug treatment, microfluidic platform 10 (Chip) compared with static system (Control), FIGS. 14A-14C
Procedure: as §1, §2

Row | SMILES | drug dose required on platform 10 to have the same IC50 as the static systems [1] | drug dose required on platform 10 to have the same IC50 as the static systems [2]
1 | O=c1[nH]cc(F)c(=O)[nH]1 [fluorouracil] | lower drug dose | higher drug dose
2 | O=C1[O][Pt]2([NH][C@@H]3CCCC[C@H]3[NH]2)[O]C1=O [oxaliplatin] | higher drug dose | higher drug dose
